Measured values: patent US9452997B2, “Piperidine and piperazine derivatives as autotaxin inhibitors” (Merck Patent GmbH, priority 2009, dated 2016)

These molecules were tested against T1, Recombinant autotaxin (Homo sapiens, UniProt Q13822) (assay: Autotaxin assay (Amplex Red, LPC substrate)). Conditions: recombinant autotaxin, LPC substrate, Amplex Red detection; values given as upper bounds.
T1 construct: made in house; host or cells: Hi5 insect cells (baculovirus)
Type: biochemical
Procedure, shortened: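 Recombinant autotaxin (Hi5 baculovirus, 16 ng) pre-incubated with compound 30 min at 22° C, then reacted with 75 μM egg LPC for 90 min at 37° C. Choline released is coupled to H2O2 and Amplex Red fluorescence (ex 485/em 612 nm). IC50 from ten 1:3 dilutions from 30 μM, duplicates, normalised to 500 μM C14 LPA.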
Work on `O=C(OCc1ccc(C(F)(F)F)c(Cl)c1)N1CCC(N2CCN(C(=O)c3ccc4[nH]nnc4c3)CC2)CC1` [Compound 92, 4-[4-(1H-Benzotriazole-5-carbonyl)-piperazin-1-yl]-piperidine-1-carboxylic acid 3-chloro-4-trifluoromethyl-benzyl ester] yielded an IC50 of less than 1 µM. In the case of `O=C(OCc1ccc(Cl)cc1F)N1CCN(C2CCN(C(=O)c3ccc4[nH]c(=O)oc4c3)CC2)CC1` [Compound 65, 4-[1-(2-Oxo-2,3-dihydro-benzooxazole-6-carbonyl)-piperidin-4-yl]-piperazine-1-carboxylic acid 4-chloro-2-fluoro-benzyl ester], the IC50 is reported as less than 1 µM. For `O=C(OCc1cc(F)cc(Cl)c1)N1CCN(C2CCN(C(=O)c3ccc4[nH]nnc4c3)CC2)CC1` [Compound 152, 4-[1-(1H-Benzotriazole-5-carbonyl)-piperidin-4-yl]-piperazine-1-carboxylic acid 3-chloro-5-fluoro-benzyl ester], the IC50 was less than 1 µM. For `O=C(c1ccc2[nH]nnc2c1)N1CCC(N2CCN(C(=O)c3cc4cc(Br)ccc4o3)CC2)CC1` [Compound 159, (1H-Benzotriazol-5-yl)-{4-[4-(5-bromo-benzofuran-2-carbonyl)-piperazin-1-yl]-piperidin-1-yl}-methanone], the IC50 was less than 10 µM. Molecule `O=C(OCc1ccc(C(F)(F)F)cc1)N1CCC(NC2CCN(C(=O)c3ccc4[nH]nnc4c3)C2)CC1` (stereo not drawn) [Compound 70, 4-[1-(1H-Benzotriazole-5-carbonyl)-pyrrolidin-3-ylamino]-piperidine-1-carboxylic acid 4-trifluoromethyl-benzyl ester] has an IC50 of less than 10 µM. In the case of `COc1cc(COC(=O)N2CCN(C3CCN(C(=O)c4ccc5[nH]nnc5c4)CC3)CC2)cc(OC)c1` [Compound 150, 4-[1-(1H-Benzotriazole-5-carbonyl)-piperidin-4-yl]-piperazine-1-carboxylic acid 3,5-dimethoxy-benzyl ester], the IC50 is reported as less than 10 µM. `Cc1nc(-c2ccc(C(F)(F)F)cc2)sc1C(=O)N1CCC(N2CC(C(=O)Nc3ccc4[nH]nnc4c3)CC2=O)CC1` (stereo not drawn) [Compound 24, 1-{1-[4-Methyl-2-(4-trifluoromethyl-phenyl)-thiazole-5-carbonyl]-piperidin-4-yl}-5-oxo-pyrrolidine-3-carboxylic acid (1H-benzotriazol-5-yl)-amide] gave an IC50 of less than 10 µM. With `O=C(OCc1cc(Cl)cc(Cl)c1)N1CCC(NC2CCN(C(=O)c3ccc4[nH]nnc4c3)CC2)C1` (stereo not drawn) [Compound 51, 3-[1-(1H-Benzotriazole-5-carbonyl)-piperidin-4-ylamino]-pyrrolidine-1-carboxylic acid 3,5-dichloro-benzyl ester] the IC50 was less than 1 µM. Work on `O=C(OCc1ccc(C(F)(F)F)c(F)c1)N1CCN(C2CCN(C(=O)c3ccc4[nH]nnc4c3)CC2)CC1` [Compound 158, 4-[1-(1H-Benzotriazole-5-carbonyl)-piperidin-4-yl]-piperazine-1-carboxylic acid 3-fluoro-4-trifluoromethyl-benzyl ester] yielded an IC50 of less than 1 µM. `O=C(OCc1ccc(Cl)cc1F)N1CCN(C2CCN(C(=O)c3ccc4[nH]nnc4c3)CC2)CC1` [Compound 36, 4-[1-(1H-Benzotriazole-5-carbonyl)-piperidin-4-yl]-piperazine-1-carboxylic acid 4-chloro-2-fluoro-benzyl ester] gave an IC50 of less than 1 µM. For `O=C(NCc1ccc(SC(F)(F)F)cc1)N1CCN(C2CCN(C(=O)c3ccc4[nH]nnc4c3)CC2)CC1` [Compound 122, 4-[1-(1H-Benzotriazole-5-carbonyl)-piperidin-4-yl]-piperazine-1-carboxylic acid 4-trifluoromethylsulfanyl-benzylamide], the IC50 was less than 10 µM. `O=C(OCc1ccc(C(F)(F)F)cc1)N1CCN(CC2CCN(C(=O)c3ccc4[nH]nnc4c3)CC2)CC1` [Compound 109, 4-[1-(1H-Benzotriazole-5-carbonyl)-piperidin-4-ylmethyl]-piperazine-1-carboxylic acid 4-trifluoromethyl-benzyl ester] was tested, and the IC50 was less than 10 µM. Molecule `O=C(CN1CCC(N2CCN(C(=O)c3ccc4[nH]nnc4c3)CC2)CC1)Nc1cc(C(F)(F)F)cc(C(F)(F)F)c1` [Compound 180, 2-{4-[4-(1H-Benzotriazole-5-carbonyl)-piperazin-1-yl]-piperidin-1-yl}-N-(3,5-bis-trifluoromethyl-phenyl)-acetamide] has an IC50 of less than 10 µM. Molecule `O=C(OCc1ccc(F)c(Cl)c1)N1CCC(N2CCN(C(=O)c3ccc4[nH]nnc4c3)CC2)CC1` [Compound 78, 4-[4-(1H-Benzotriazole-5-carbonyl)-piperazin-1-yl]-piperidine-1-carboxylic acid 3-chloro-4-fluoro-benzyl ester] has an IC50 of less than 1 µM. `O=C(OCc1cc(F)cc(Br)c1)N1CCN(C2CCN(C(=O)c3ccc4[nH]nnc4c3)CC2)CC1` [Compound 154, 4-[1-(1H-Benzotriazole-5-carbonyl)-piperidin-4-yl]-piperazine-1-carboxylic acid 3-bromo-5-fluoro-benzyl ester] gave an IC50 of less than 1 µM. `O=C(/C=C/c1ccc(Br)cc1F)N1CCC(N2CCN(C(=O)c3ccc4[nH]nnc4c3)CC2)CC1` [Compound 83, (E)-1-{4-[4-(1H-Benzotriazole-5-carbonyl)-piperazin-1-yl]-piperidin-1-yl}-3-(4-bromo-2-fluoro-phenyl)-propenone] gave an IC50 of less than 1 µM. For `O=C(OCc1ccc(OC(F)(F)F)c(Br)c1)N1CCN(C2CCN(C(=O)c3ccc4[nH]nnc4c3)CC2)CC1` [Compound 166, 4-[1-(1H-Benzotriazole-5-carbonyl)-piperidin-4-yl]-piperazine-1-carboxylic acid 3-bromo-4-trifluoromethoxy-benzyl ester], the IC50 was less than 1 µM. With `O=C(COc1ccc(OC(F)(F)F)cc1)N1CCN(C2CCN(C(=O)c3ccc4[nH]nnc4c3)CC2)CC1` [Compound 160, 1-{4-[1-(1H-Benzotriazole-5-carbonyl)-piperidin-4-yl]-piperazin-1-yl}-2-(4-trifluoromethoxy-phenoxy)-ethanone] the IC50 was less than 10 µM. `O=C(c1ccc2[nH]nnc2c1)N1CCC(N2CCN(C(=O)c3ccccc3-c3ccc(C(F)(F)F)cc3)CC2)CC1` [Compound 124, (1H-Benzotriazol-5-yl)-{4-[4-(4′-trifluoromethyl-biphenyl-2-carbonyl)-piperazin-1-yl]-piperidin-1-yl}-methanone] showed an IC50 of less than 10 µM. Work on `COc1ccc(Cl)cc1NC(=O)CN1CCC(N2CCN(C(=O)c3ccc4[nH]nnc4c3)CC2)CC1` [Compound 181, 2-{4-[4-(1H-Benzotriazole-5-carbonyl)-piperazin-1-yl]-piperidin-1-yl}-N-(5-chloro-2-methoxy-phenyl)-acetamide] yielded an IC50 of less than 10 µM. Molecule `CC1=NN(c2ccc(NC(=O)C3CC(=O)N(C4CCN(C(=O)OCc5cc(Cl)cc(Cl)c5)CC4)C3)cc2)C(=O)C1` (stereo not drawn) [Compound 56, 4-{4-[4-(3-Methyl-5-oxo-4,5-dihydro-pyrazol-1-yl)-phenylcarbamoyl]-2-oxo-pyrrolidin-1-yl}-piperidine-1-carboxylic acid 3,5-dichloro-benzyl ester] has an IC50 of less than 10 µM. `O=C(OCc1cc(Cl)cc(Cl)c1)N1CCC(N2CCN(C(=O)c3ccc4[nH]c(=O)oc4c3)CC2)CC1` [Compound 25, 4-[4-(2-Oxo-2,3-dihydro-benzooxazole-6-carbonyl)-piperazin-1-yl]-piperidine-1-carboxylic acid 3,5-dichloro-benzyl ester] showed an IC50 of less than 1 µM. Work on `O=C(OCc1ccc(Cl)cc1F)N1CCC(NC2CCN(C(=O)c3ccc4[nH]nnc4c3)CC2)C1` (stereo not drawn) [Compound 63, 3-[1-(1H-Benzotriazole-5-carbonyl)-piperidin-4-ylamino]-pyrrolidine-1-carboxylic acid 4-chloro-2-fluoro-benzyl ester] yielded an IC50 of less than 10 µM. Work on `O=C(Nc1ccc2[nH]nnc2c1)c1cncc(N2CCN(C(=O)OCc3ccc(Cl)cc3)CC2)c1` [Compound 6, 4-[5-(1H-Benzotriazol-5-ylcarbamoyl)-pyridin-3-yl]-piperazine-1-carboxylic acid 4-chloro-benzyl ester] yielded an IC50 of less than 30 µM. In the case of `Nc1n[nH]c2ccc(C(=O)N3CCN(C4CCN(C(=O)OCc5ccc(C(F)(F)F)cc5)CC4)CC3)cc12` [Compound 112, 4-[4-(3-Amino-1H-indazole-5-carbonyl)-piperazin-1-yl]-piperidine-1-carboxylic acid 4-trifluoromethyl-benzyl ester], the IC50 is reported as less than 10 µM. Work on `O=C(OCC1CN(c2ccc(Cl)cc2)C(=O)O1)N1CCN(C2CCN(C(=O)c3ccc4[nH]nnc4c3)CC2)CC1` (stereo not drawn) [Compound 175, 4-[1-(1H-Benzotriazole-5-carbonyl)-piperidin-4-yl]-piperazine-1-carboxylic acid 3-(4-chloro-phenyl)-2-oxo-oxazolidin-5-ylmethyl ester] yielded an IC50 of less than 10 µM. `O=C(OCc1c(F)cc(Br)cc1F)N1CCN(C2CCN(C(=O)c3ccc4[nH]nnc4c3)CC2)CC1` [Compound 157, 4-[1-(1H-Benzotriazole-5-carbonyl)-piperidin-4-yl]-piperazine-1-carboxylic acid 4-bromo-2,6-difluoro-benzyl ester] showed an IC50 of less than 10 µM. For `O=C(OCc1ccc(C(F)(F)F)cc1)N1CCN(C2CCN(C(=O)c3ccc4[nH]nnc4c3)CC2)CC1` [Compound 34, 4-[1-(1H-Benzotriazole-5-carbonyl)-piperidin-4-yl]-piperazine-1-carboxylic acid 4-trifluoromethyl-benzyl ester], the IC50 was less than 1 µM. `O=C(OCc1ccc(OC(F)(F)F)c(Cl)c1)N1CCC(N2CCN(C(=O)c3ccc4[nH]nnc4c3)CC2)CC1` [Compound 143, 4-[4-(1H-Benzotriazole-5-carbonyl)-piperazin-1-yl]-piperidine-1-carboxylic acid 3-chloro-4-trifluoromethoxy-benzyl ester] was tested, and the IC50 was less than 1 µM. Molecule `O=C(OCc1ccc(OC(F)(F)F)cc1)N1CCN(C2CCN(C(=O)c3ccc4[nH]nnc4c3)CC2)CC1` [Compound 47, 4-[1-(1H-Benzotriazole-5-carbonyl)-piperidin-4-yl]-piperazine-1-carboxylic acid 4-trifluoromethoxy-benzyl ester] has an IC50 of less than 1 µM.
